Results taken from patent US20010049450A1 (priority 2000, published 2001).
Structures can show the parent of a compound that is named as a salt.

Key:
[1] = Crystal particle size distribution and average particle size (SHIMADZU SALD1100, medium diisopropyl ether); format: physicochemical; conditions: for average particle size: average diameter upon conversion of particle volume into sphere; for average particle size / crystal particle size distribution: not less than 10 μm and less than 20 μm / crystal particle size distribution: not less than 20 μm and less than 40 μm / crystal particle size distribution: less than 5 μm / crystal particle size distribution: not less than 40 μm: hydrobromide; for crystal particle size distribution: not less than 10 μm and less than 20 μm: fraction of crystals with 10 μm ≦ D < 20 μm; for crystal particle size distribution: not less than 20 μm and less than 40 μm: fraction of crystals with 20 μm ≦ D < 40 μm; for crystal particle size distribution: less than 5 μm: fraction of crystals with D < 5 μm; for crystal particle size distribution: not less than 40 μm: fraction of crystals with D ≧ 40 μm
Procedure: The average particle size in the present invention is an average diameter upon conversion of the volume of the crystal particles into sphere. The powder X-ray crystal diffraction and average particle size were measured in the following Reference Example, Examples and Comparative Example, according to the following methods. Average particle size: SHIMADZU CORPORATION SALD1100 (medium:diisopropyl ether)

[2] = Bulk density and tap density of crystals; format: physicochemical

| SMILES | average particle size [1] | crystal particle size distribution: not less than 10 μm and less than 20 μm [1] | crystal particle size distribution: not less than 20 μm and less than 40 μm [1] | crystal particle size distribution: less than 5 μm [1] | crystal particle size distribution: not less than 40 μm [1] | bulk density [2] | tap density [2] | fine crystals having a particle size of less than 5 μm (of the total amount) ([1]; crystallized according to the method of U.S. Pat. No. 4,650,884) |
| --- | --- | --- | --- | --- | --- | --- | --- | --- |
| CN(C)CCCC1(c2ccc(F)cc2)OCc2cc(C#N)ccc21 (single isomer, unassigned) [Example 1, citalopram hydrobromide] | 12.9 μm | 29.1% | 27.0% | 17.1% | 4.6% |  |  |  |
| CN(C)CCCC1(c2ccc(F)cc2)OCc2cc(C#N)ccc21 (single isomer, unassigned) [Example 4, citalopram hydrobromide] | 23.8 μm | 20.9% | 31.7% | 9.6% | 25.5% |  |  |  |
| CN(C)CCCC1(c2ccc(F)cc2)OCc2cc(C#N)ccc21 (single isomer, unassigned) [Example 6, citalopram hydrobromide] | 14.6 μm | 35.5% | 29.3% | 12.6% | 2.4% | 0.2 g/mL | 0.42 g/mL |  |
| CN(C)CCCC1(c2ccc(F)cc2)OCc2cc(C#N)ccc21 (centres unmarked) [Comparative Example 1, citalopram hydrobromide, reference compound] | 6.3 μm | 23.9% | 4.0% | 41.9% | 0% |  |  |  |
| CN(C)CCCC1(c2ccc(F)cc2)OCc2cc(C#N)ccc21 (centres unmarked) [Example 2, citalopram hydrobromide] | 7.8 μm | 25.7% | 12.2% | D < 5 μm 31.4% | D ≧ 40 μm 0.3% |  |  |  |
| CN(C)CCCC1(c2ccc(F)cc2)OCc2cc(C#N)ccc21 (centres unmarked) [Example 3, citalopram hydrobromide] | 11.0 μm | 31.0% | 21.6% | D < 5 μm 19.6% | D ≧ 40 μm 1.6% |  |  |  |
| CN(C)CCCC1(c2ccc(F)cc2)OCc2cc(C#N)ccc21 (centres unmarked) [Example 5, citalopram hydrobromide] | 15.1 μm | 10 μm ≦ D < 20 μm 26.9% | 20 μm ≦ D < 40 μm 31.0% | D < 5 μm 15.6% | D ≧ 40 μm 7.2% (shown |  |  |  |
| CN(C)CCCC1(c2ccc(F)cc2)OCc2cc(C#N)ccc21 (centres unmarked) [citalopram hydrobromide, reference compound] |  |  |  |  |  |  |  | 41.9% |
